Measurements taken from patent publication US8642657B2 (Gruenenthal GmbH, priority 2003, dated 2014).

How the values were obtained:
rat VR1 [1] = target: T1, rat VR1 (Rattus norvegicus, UniProt O35433); test: [3H]resiniferatoxin (RTX) competition binding assay, VR1-transfected CHO cells
T1 construct: expressed in transfected cells
Method: The pUHG102 VR1 plasmid was transfected into CHO cells containing the pTet Off regulatory plasmid (Clontech). In these cells, expression of the VR1 is repressed in the presence of tetracycline but is induced upon removal of the antibiotic. Stable clones were isolated in culture medium containing puromycin (10 μg/mL) and maintained in HAM F12 medium supplemented with tetracycline (1 μg/mL), 5 μg/ml geniticin, 25 mM HEPES, 10% FBS. Cells utilized for assays were grown in culture medium without antibiotic for 48 h before use. Cells were seeded in T75 cell culture flasks in media without antibiotics and grown to approximately 90% confluence. The flasks were then washed with PBS and harvested in 0.25% trypsin, 1 mM EDTA. The cells were pelleted by gentle centrifugation and stored at −20° C. until assay.
Competition Binding Assay
Binding studies with [^3H]resiniferatoxin (RTX) were carried out as described previously with minor modifications (Szallasi et al., 1992). Binding assay mixtures were set up on ice and contained 50-100 pM [^3H]RTX, various concentrations of competing ligands, 0.25 mg/mL BSA (Cohn fraction V), and about 5×10^5 VR1-transfected cells. The final volume was adjusted to 350 μL with DPBS with Ca^2+ and Mg^2+ and 0.25 mg/mL bovine serum albumin. Non-specific binding was determined in the presence of 100 nM nonradioactive RTX. The binding reaction was initiated by transferring the assay mixtures to a 37° C. water bath and was terminated after a 60 min incubation period by cooling the tubes on ice. To reduce non-specific binding, 200 μg/ml α-glycoprotein was added. Membrane-bound RTX was then separated from the free by pelleting the membranes in a Beckman 12 benchtop centrifuge (15 min, maximal velocity), the tips of the tubes containing the pellets were cut off, and the radioactivity was determined by scintillation counting. Equilibrium binding parameters (Ki and cooperativity) were determined by fitting the Hill equation to the measured values with the aid of the program MicroCal Origin 6.0.
(§1) Initial stocks were dissolved in DMSO. For the binding assays, compounds were diluted in with DPBS with Ca^2+ and Mg^2+ and 0.25 mg/mL bovine serum albumin. For the calcium uptake assays, compounds were diluted in DMEM with 0.25 mg/mL bovine serum albumin.

rat VR1 [2] = target: T1, rat VR1; test: 45Ca2+-uptake assay in CHO/VR1 cells, antagonism of capsaicin-stimulated uptake; type: cell-based; settings: 45Ca2+ uptake stimulated by 50 nM capsaicin
Method: as §1
Molecules were characterized to determine whether they were full agonists, partial agonists, or antagonists. For studies of ^45Ca^2+ uptake by CHO/VR1 cells (Tet-off cells), the cells were plated in 24-well plates to yield a cell density 20-40% of that required to produce confluence. The next day the medium was changed to remove the tetracycline and induce VR1 expression. Experiments were performed approximately 36-40 hours after induction. For ^45Ca^2+ uptake assay, cells were incubated for 5 min at 37° C. in a total volume of 400 μL of serum free DMEM (containing 1.8 mM CaCl2) in the presence of 0.25 mg/mL BSA (Sigma), 1 μCi/mL ^45Ca^2+ (5-30 Ci/g from ICN, CA), and increasing concentrations of the compound to be tested. Immediately after the incubation, extracellular ^45Ca^2+ was removed by washing the cells three times with cold DPBS (containing 1.8 mM CaCl2). Then 400 μl RIPA buffer (50 mM Tris pH 7.4; 150 mM NaCl; 1% Triton X-100; 0.1% SDS; 1% sodium deoxycholate) was added to each well in order to lyse the cells. Plates were shaken slowly for 20 min; then 306 μL of cell lysate was transferred from each well into a scintillation vial and radioactivity was determined by scintillation counting. For each data point in each experiment, four wells were assayed. Data from these experiments were analyzed by computer fit to the Hill equation. At least 3 separate experiments were carried out for each compound. In order to determine antagonist activity, studies were performed in exactly the same fashion with the exception that 50 nM capsaicin was added to the assay mixture to stimulate ^45Ca^2+ uptake.

[3] = competition with [3H]RTX, rat VR1 in CHO cells, read-out: Ki (nM) Binding Affinity

T1 sequence (O35433 whole entry): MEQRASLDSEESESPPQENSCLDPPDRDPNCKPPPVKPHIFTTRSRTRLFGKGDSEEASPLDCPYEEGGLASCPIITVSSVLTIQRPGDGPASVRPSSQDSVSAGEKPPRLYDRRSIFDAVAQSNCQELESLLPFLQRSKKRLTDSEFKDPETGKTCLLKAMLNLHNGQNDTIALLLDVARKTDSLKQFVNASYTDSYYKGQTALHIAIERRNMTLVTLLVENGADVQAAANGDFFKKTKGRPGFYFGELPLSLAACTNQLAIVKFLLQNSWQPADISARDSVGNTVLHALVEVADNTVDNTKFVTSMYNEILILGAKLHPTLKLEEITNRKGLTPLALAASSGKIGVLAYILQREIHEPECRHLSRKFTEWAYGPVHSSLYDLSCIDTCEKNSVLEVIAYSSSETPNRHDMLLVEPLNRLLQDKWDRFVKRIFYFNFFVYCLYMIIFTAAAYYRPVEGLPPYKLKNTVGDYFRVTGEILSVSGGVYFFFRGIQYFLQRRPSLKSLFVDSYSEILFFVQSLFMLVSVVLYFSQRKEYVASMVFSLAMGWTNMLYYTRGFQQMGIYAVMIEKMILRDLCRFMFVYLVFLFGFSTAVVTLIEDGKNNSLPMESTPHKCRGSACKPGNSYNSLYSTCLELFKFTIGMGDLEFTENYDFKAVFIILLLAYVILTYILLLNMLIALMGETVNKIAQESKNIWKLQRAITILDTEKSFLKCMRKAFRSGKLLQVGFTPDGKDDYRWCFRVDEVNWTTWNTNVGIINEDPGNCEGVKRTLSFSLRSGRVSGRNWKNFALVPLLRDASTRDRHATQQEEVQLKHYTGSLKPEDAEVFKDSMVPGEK

CC(NC(=O)NCc1ccc(C(C)(C)C)cc1)c1ccc(NS(C)(=O)=O)c(F)c1 (stereo not drawn) [23-2, N-(4-t-Butylbenzyl)-N′-{1-[3-fluoro-4-(methylsulfonylamino)phenyl]ethyl}urea] gave a Ki (rat VR1 [1]) of 447 nM, a Ki (rat VR1 [2]) of 298 nM and a melting point of 152 to 154 °C.

Compound CC(C)(C)c1ccc(CNC(=S)NC(c2ccccc2)c2ccc(NS(C)(=O)=O)c(F)c2)cc1 (stereo not drawn) [20-14] has a Ki (rat VR1 [1]; [3]) of 100 nM, a Ki (rat VR1 [2]) of 861 nM and a melting point of 191 °C.

CC(C(=O)NCc1ccc(C(C)(C)C)cc1)c1ccc(NS(C)(=O)=O)c(Br)c1 (stereo not drawn) [1-53, N-(4-tert-Butylbenzyl)-2-[3-bromo-4-(methylsulfonylamino)phenyl]propionamide] gave a Ki (rat VR1 [1]; [3]) of 7.41 nM, a Ki (rat VR1 [2]) of 24.9 nM and a melting point of 66 to 67 °C.

For COc1cc(C(C)NC(=S)NCc2ccc(C(C)(C)C)cc2)ccc1NS(C)(=O)=O (stereo not drawn) [15-3, N-(4-t-Butylbenzyl)-N′-{1-[3-methoxy-4-(methylsulfonylamino)phenyl]ethyl}thiourea], the Ki (rat VR1 [1]; [3]) was 66.5 nM, the Ki (rat VR1 [2]) was 28.6 nM and the melting point was 80 to 82 °C.

CC(C(=O)NCc1ccc(C(C)(C)C)cc1)c1ccc(NS(C)(=O)=O)c(C#N)c1 (stereo not drawn) [1-56, N-(4-tert-Butylbenzyl)-2-[3-cyano-4-(methylsulfonylamino)phenyl]propionamide] gave a Ki (rat VR1 [1]; [3]) of 344 nM, a Ki (rat VR1 [2]) of 467 nM and a melting point of 102 to 105 °C.

Work on CC(NC(=O)NCc1ccc(C(C)(C)C)cc1)c1ccc(NS(C)(=O)=O)cc1 (stereo not drawn) [23-1, N-(4-t-Butylbenzyl)-N′-{1-[4-(methylsulfonylamino)phenyl]ethyl}urea] yielded a Ki (rat VR1 [1]) of 1190 nM, a Ki (rat VR1 [2]) of 544 nM and a melting point of 95 to 98 °C.

Cc1ccc(CC(CNC(=O)C(C)(C)c2ccc(NS(C)(=O)=O)cc2)COC(=O)C(C)(C)C)cc1C (stereo not drawn) [9-1, N-[2-(3,4-Dimethylbenzyl)-3-pivaloyloxypropyl]-2-[4-(methylsulfonylamino)phenyl]-2-methylpropionamide] showed a Ki (rat VR1 [1]; [3]) of 372 nM, a Ki (rat VR1 [2]) of 103 nM and a melting point of 126 to 130 °C.

For C[C@@H](NC(=S)NC[C@H](COC(=O)C(C)(C)C)Cc1ccc(C(C)(C)C)cc1)c1ccc(NS(C)(=O)=O)cc1 [18-11, N-[(2R)-2-(4-tert-Butylbenzyl)-3-(pivaloyloxy)propyl]-N′-{(1R)-1-[4-(methylsulfonylamino)phenyl]ethyl}thiourea], the Ki (rat VR1 [1]) was 15.7 nM, the Ki (rat VR1 [2]) was 53 nM and the melting point was 85 to 87 °C.

In the case of Cc1ccc(CC(CNC(=O)C2(c3ccc(NS(C)(=O)=O)c(F)c3)CC2)COC(=O)C(C)(C)C)cc1C (stereo not drawn) [12-2, N-[2-(3,4-Dimethylbenzyl)-3-pivaloyloxypropyl]-1-[3-fluoro-4-(methylsulfonylamino)phenyl]cyclopropanecarboxamide], the Ki (rat VR1 [1]; [3]) is reported as 1580 nM, the Ki (rat VR1 [2]) is reported as 567 nM and the melting point is reported as 55 to 56 °C.

CC(C(=O)NCc1ccc(C(C)(C)C)cc1)c1ccc(NS(C)(=O)=O)cc1F (stereo not drawn) [1-66, N-(4-tert-Butylbenzyl)-2-[2-fluoro-4-(methylsulfonylamino)phenyl]propionamide] showed a Ki (rat VR1 [1]; [3]) of 358 nM, a Ki (rat VR1 [2]) of 120 nM and a melting point of 111 to 113 °C.

Compound CC(C)(C)c1ccc(CNC(=O)C2(c3ccc(NS(C)(=O)=O)cc3)CC2)cc1 [12-7, N-(4-tert-Butylbenzyl)-1-[4-(methylsulfonylamino)phenyl]cyclopropanecarboxamide] has a Ki (rat VR1 [1]; [3]) of 608 nM, a Ki (rat VR1 [2]) of 1760 nM and a melting point of 200 to 203 °C.

With COc1cc(C(C)(C)C(=O)NCC(COC(=O)C(C)(C)C)Cc2ccc(C)c(C)c2)ccc1NS(C)(=O)=O (stereo not drawn) [9-3, N-[2-(3,4-Dimethylbenzyl)-3-pivaloyloxypropyl]-2-[3-methoxy-4-(methylsulfonylamino)phenyl]-2-methylpropionamide] the Ki (rat VR1 [1]; [3]) was 152 nM, the Ki (rat VR1 [2]) was 133 nM and the melting point was 100 to 103 °C.

With CC(C)(C)c1ccc(CNC(=O)C(C)(C)c2ccc(NS(C)(=O)=O)c(F)c2)cc1 [9-8, N-(4-tert-Butylbenzyl)-2-[3-fluoro-4-(methylsulfonylamino)phenyl]-2-methylpropionamide] the Ki (rat VR1 [1]; [3]) was 1070 nM, the Ki (rat VR1 [2]) was 467 nM and the melting point was 48 to 51 °C.

CC(C(=O)NCCC(c1ccccc1)c1ccccc1)c1ccc(NS(C)(=O)=O)c(F)c1 (stereo not drawn) [4-24, N-(3,3-Diphenylpropyl)-2-[3-fluoro-4-(methylsulfonylamino)phenyl]propionamide] showed a Ki (rat VR1 [1]) of 128 nM, a Ki (rat VR1 [2]) of 36.6 nM and a melting point of 66 to 68 °C.

For CC(C(=O)NCc1ccc(C(C)(C)C)cc1)c1ccc(NS(C)(=O)=O)cc1 (stereo not drawn) [2-7, N-(4-tert-Butylbenzyl)-2-[4-(methylsulfonylamino)phenyl]propionamide], the Ki (rat VR1 [1]; [3]) was 105 nM, the Ki (rat VR1 [2]) was 17.5 nM and the melting point was 77 to 79 °C.

Work on COC(=O)c1cc(C(C)NC(=S)NCc2ccc(C(C)(C)C)cc2)ccc1NS(C)(=O)=O (stereo not drawn) [15-4, N-(4-t-Butylbenzyl)-N′-{1-[3-(methoxycarbonyl)-4-(methylsulfonylamino)phenyl]ethyl}thiourea] yielded a Ki (rat VR1 [1]) of 163 nM, a Ki (rat VR1 [2]) of 65.8 nM and a melting point of 132 to 135 °C.

With Cc1ccc(C=CC(=O)NC(C)c2ccc(NS(C)(=O)=O)c(F)c2)cc1C (stereo not drawn) [24-5, N-{1-[3-Fluoro-4-(methylsulfonylamino)phenyl]ethyl}-3-(3,4-dimethylphenyl)-2-propenamide] the Ki (rat VR1 [1]) was 2520 nM, the Ki (rat VR1 [2]) was 1350 nM and the melting point was 212 to 213 °C.

Compound COc1cc(C2(C(=O)NCC(COC(=O)C(C)(C)C)Cc3ccc(C)c(C)c3)CC2)ccc1NS(C)(=O)=O (stereo not drawn) [12-3, N-[2-(3,4-Dimethylbenzyl)-3-pivaloyloxypropyl]-1-[3-methoxy-4-(methylsulfonylamino)phenyl]cyclopropanecarboxamide] has a Ki (rat VR1 [1]; [3]) of 238 nM, a Ki (rat VR1 [2]) of 117 nM and a melting point of 66 to 68 °C.

With C[C@@H](C(=O)NC[C@@H](COC(=O)C(C)(C)C)Cc1ccc(C(C)(C)C)cc1)c1ccc(NS(C)(=O)=O)c(F)c1 [6-11, N-[(2S)-2-(4-t-Butylbenzyl)-3-(pivaloyloxy)propyl]-(2R)-2-[3-fluoro-4-(methylsulfonylamino)phenyl]propionamide] the Ki (rat VR1 [1]; [3]) was 63.8 nM, the Ki (rat VR1 [2]) was 142 nM and the melting point was 44 to 46 °C.

CC(C(=O)NCc1ccc(Cl)c(Cl)c1)c1ccc(NS(C)(=O)=O)cc1 (stereo not drawn) [2-9, N-(3,4-Dichlorobenzyl)-2-[4-(methylsulfonylamino)phenyl]propionamide] showed a Ki (rat VR1 [1]) of 1650 nM, a Ki (rat VR1 [2]) of 253 nM and a melting point of 130 °C.

CC(C(=O)NCc1ccc(C(F)(F)F)cc1)c1ccc(NS(C)(=O)=O)c(F)c1 (stereo not drawn) [4-10, N-(4-Trifluoromethylbenzyl)-2-[3-fluoro-4-(methylsulfonylamino)phenyl]propionamide] gave a Ki (rat VR1 [1]; [3]) of 657 nM, a Ki (rat VR1 [2]) of 274 nM and a melting point of 150 to 152 °C.

Work on CC(C(=O)NCc1ccc(Cl)cc1)c1ccc(NS(C)(=O)=O)cc1 (stereo not drawn) [2-8, N-(4-Chlorobenzyl)-2-[4-(methylsulfonylamino)phenyl]propionamide] yielded a Ki (rat VR1 [1]) of 3500 nM, a Ki (rat VR1 [2]) of 1090 nM and a melting point of 164 °C.

CC(C(=O)NCc1ccc(C(C)(C)C)cc1)c1ccc(NS(C)(=O)=O)c(Cl)c1 (stereo not drawn) [1-52, N-(4-tert-Butylbenzyl)-2-[3-chloro-4-(methylsulfonylamino)phenyl]propionamide] gave a Ki (rat VR1 [1]; [3]) of 30.7 nM, a Ki (rat VR1 [2]) of 29.5 nM and a melting point of 126 to 129 °C.

With CC(C)(C)c1ccc(CNC(=S)NC2(c3ccc(NS(C)(=O)=O)cc3)CC2)cc1 [22-7, N-(4-t-Butylbenzyl)-N′-{1-[4-(methylsulfonylamino)phenyl]cyclopropyl}thiourea] the Ki (rat VR1 [1]; [3]) was 171 nM, the Ki (rat VR1 [2]) was 60.3 nM and the melting point was 110 to 113 °C.
